Experimental data: patent US4299834A, “8-Phenyl-purines and pharmaceutical compositions containing same” (Boehringer Ingelheim Gesellschaft mit beschrankter Haftung, priority 1979, dated 1981)

Tests used:
[1] = test system: white mice; test: Acute Toxicity in white mice after oral administration; type: in vivo; settings: single dose of 300 mg/kg, observation time 14 days
Experimental: (§1) The acute toxicity of the test compounds was determined in white mice after oral administration of a single dose of 300 mg/kg (observation time: 14 days).

[2] = as above; type: in vivo; settings: mouse, in vivo, single dose of 300 mg/kg, observation time 14 days
Experimental: as §1

Row | SMILES | animals died [1] | LD50 at 336 h [2] [mg/kg]
1 | COc1cc([S+](C)[O-])ccc1-c1nc2ncncc2[nH]1 (stereo not drawn) [H, 8-(2-Methoxy-4-methylsulfinyl-phenyl)-purine] | 3 out of 6 | ~300
2 | COc1ccc(-c2nc3ncncc3[nH]2)c(OCCSC)c1 [C, 8-[4-Methoxy-2-(2-methylmercapto-ethoxy)-phenyl]purine] | 0 out of 6 | > 300
3 | COc1cc(Cl)ccc1-c1nc2ncncc2[nH]1 [G, 8-(4-Chloro-2-methoxy-phenyl)-purine] | 1 out of 6 | > 300
4 | COc1ccc(-c2nc3ncncc3[nH]2)c(OC)c1 [A, 8-(2,4-Dimethoxy-phenyl)-purine] | 0 out of 6 | > 300
5 | COc1cc(SC)ccc1-c1nc2ncncc2[nH]1 [B, 8-(2-Methoxy-4-methylmercapto-phenyl)-purine] | 2 out of 6 | > 300
6 | COc1ccc(-c2nc3ncncc3[nH]2)c(OCC[S+](C)[O-])c1 (stereo not drawn) [D, 8-[4-Methoxy-2-(2-methylsulfinyl-ethoxy)-phenyl]purine] | 0 out of 6 | > 300
